Laboratory results taken from paper PMC9230533, “Discovery of Triple Inhibitors of Both SARS-CoV-2 Proteases and Human Cathepsin L” (Pharmaceuticals, 2022).
Where two headings read alike, the source gives them in different places.

Legend:
[1] = system: SARS-CoV-2; assay: SARS-CoV-2 infectivity cells-based assay (Huh7.5.1, immunofluorescence), antiviral efficacy; type: cell-based; conditions: for EC50: Severe acute respiratory syndrome coronavirus 2, Huh-7.5.1, 48 h, read-out: SARS-CoV-2 Infectivity Cells-Based Assay EC50; for CC50/EC50 Ratio (therapeutic ratio): CC50 over EC50
[2] = biological target: T1, human cathepsin L (Homo sapiens, UniProt P07711); assay: Human cathepsin L fluorogenic enzymatic inhibition assay; type: biochemical; conditions: for inhibitory effect on cathepsin L (in words): dose-response, Figure 4
T1 construct: purchased R & D Systems

[3] = cited from earlier work
[4] = system: SARS-CoV PLpro; conditions: cited from earlier work
[5] = Cell viability / cytotoxicity in the SARS-CoV-2 Huh7.5.1 infectivity assay; conditions: human, Huh7.5.1 cells infected with SARS-CoV-2 (MOI 1.0), tested 60 to 0.08 µM, read-out: SARS-CoV-2 Infectivity Cells-Based Assay CC50 (converted)
[6] = biological target: SARS-CoV-2 Mpro (Severe acute respiratory syndrome coronavirus 2, UniProt P0DTD1); assay: SARS-CoV-2 Mpro fluorometric (FRET peptide) enzymatic inhibition assay; type: biochemical; conditions: for fold more potent than disulfiram against Mpro: ratio of IC50 values vs disulfiram
[7] = biological target: SARS-CoV-2 PLpro (Severe acute respiratory syndrome coronavirus 2, UniProt P0DTD1); assay: SARS-CoV-2 PLpro fluorogenic enzymatic inhibition assay; type: biochemical
[8] = Oral median lethal dose in mice (literature); type: in vivo; conditions: mouse, ratio of cited LD50 values
[9] = 50 nM Mpro, 10 µM MCA-[…]-K(DNP)-K-NH2, no DTT, 37 °C, read-out: Mpro IC50
[10] = 24.46 nM PLpro, 50 µM Z-RLRGG-AMC, no DTT, 37 °C, read-out: PLpro IC50
[11] = 1 nM cathepsin L, Z-Phe-Arg-AMC substrate, read-out: Cathepsin L IC50

T1 sequence (P07711 114-333): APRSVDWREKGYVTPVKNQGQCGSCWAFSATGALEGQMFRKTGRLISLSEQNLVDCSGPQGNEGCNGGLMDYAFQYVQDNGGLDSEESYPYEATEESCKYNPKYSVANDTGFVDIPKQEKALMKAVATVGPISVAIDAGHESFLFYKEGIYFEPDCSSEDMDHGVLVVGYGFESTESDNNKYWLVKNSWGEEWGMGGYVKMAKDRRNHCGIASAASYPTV

Row | Structure (SMILES) | EC50 [1] [nM] | IC50 [2] [nM] | LD50 Mouse oral [3] | IC50 [4] [nM] | CC50 at 48 h [5] [nM] | IC50 [6, 9] [nM] | CC50/EC50 Ratio (therapeutic ratio) ([1]; Huh7.5.1 cells) | IC50 [7, 10] [nM] | IC50 [2, 11] [nM] | IC50 [6] [nM] | fold more potent than disulfiram against Mpro [6] | IC50 [7] [nM] | LD50 relative to LD50 of disulfiram [8] | concentration range of antiviral activity ([1]; Huh7.5.1 cells, MOI 1.0, 48 h) [nM] | fold more potent than disulfiram against PLpro ([7]; ratio of IC50 values vs disulfiram) [fold] | inhibitory effect on cathepsin L (in words) [2]
1 | CCN(CC)C(=S)SSC(=S)N(CC)CC [Disulfiram, reference compound] | 500 ± 200 | 2200 ± 1400 | 1980 [29] mg/kg | 24100 | 900 | – | – | – | – | – | – | – | – | – | – | –
2 | CN1CCN(C(=S)SSC(=S)N2CCN(C)CC2)CC1 [RI171, di-4-Methylpiperazine-thiuram disulfide] | 1900 ± 200 | – | 100 [26] mg/kg | – | 1700 | 3200 ± 100 | 0.9 | 1900 ± 100 | 4500 ± 700 | – | – | – | – | – | – | –
3 | S=C(SSC(=S)N1CCCC1)N1CCCC1 [RI172, di-Pyrrolidine-thiuram disulfide] | < 80 | 200 | – | – | < 80 | – | – | – | – | 600 ± 100 | 2.5 fold | 700 | – | – | – | –
4 | S=C(SSC(=S)N1CCOCC1)N1CCOCC1 [RI173, di-Morpholine-thiuram disulfide] | 100 | – | 3250 [31] mg/kg | – | 300 | 600 ± 100 | 3 | 200 ± 100 | 1700 ± 600 | – | 2.5 fold | – | approximately 1.6 times | 100 to 200 | 19 | –
5 | CN(C)C(=S)SSC(=S)N(C)C [RI174, tetra-Methyl-thiuram disulfide] | < 80 | 16900 ± 6900 | 1350 [33] mg/kg | – | < 80 | – | – | – | – | 2000 ± 300 | – | 600 | – | – | – | –
6 | CCOC(=S)SSC(=S)OCC [RI175, O,O-di-Ethyl dithiobis-thioformate] | > 60000 | 1900 ± 600 | 1200 [32] mg/kg | – | > 60000 | – | – | – | – | 300 ± 100 | about 5 fold | 600 ± 100 | – | – | – | –
7 | CN(C(=S)SSC(=S)N(C)c1ccccc1)c1ccccc1 [RI176, di-Methyl-di-Phenyl-thiuram disulfide] | – | – | – | – | – | – | – | – | > 50000 | > 50000 | – | > 50000 | – | – | – | did not seem to have any inhibitory effect
8 | CC(C)N(C(=S)SSC(=S)N(C(C)C)C(C)C)C(C)C [RI177, tetra-IsoPropyl-thiuram disulfide] | > 60000 | – | – | – | > 60000 | – | – | – | > 50000 | 3800 ± 600 | – | > 50000 | – | – | – | did not seem to have any inhibitory effect
